What all share (experiment): biochemical
Holding throughout (design): DiscoverX KINOMEscan scanMAX competition binding panel, single concentration, percent of control; remaining binding: dose or concentration left out as unconfirmed
Details in all cases: KINOMEscan binding, percent of control; read-out: Table S4_SCANMAX REPORT - related to Fig. 1 / Percent Control

For one assay, the target named is MYO3A (Homo sapiens, UniProt Q8NEV4). From the text:
(§1) Certain PTH are potent inhibitors of TLK1 ([Ronald et al., 2013]), and by inference TLK2, as these proteins must homo- and hetero-dimerize for full activation ([Mortuza et al., 2018]), in addition to being highly similar in sequence and structure, and thus similarly targetable. […] Two noteworthy observations are that PTHs are structurally different from many known ATP competitive inhibitors, and that J54 was carefully designed based on considerations reported previously for the THD—the Kinomescan has confirmed that J54 is specific to TLKs. We should point out that although PTH were the first reported inhibitors of TLKs ([Ronald et al., 2013]), other inhibitors particularly of TLK2 have since been reported ([Kim et al., 2016]), some based on structure docking ([Mortuza et al., 2018]), although neither their potency and effects in vivo nor their potential off-target effects have not been reported as they were selected from libraries of kinase inhibitors. Supplementary file mmc2.xlsx: Table S4. SCANMAX Table, Related to Figure 1 Kinomescan of J54 inhibitory activity on human kinases.

The target of another assay is TNIK (Homo sapiens, UniProt Q9UKE5).
Text: as §1

A further assay deals with PIM2 (Homo sapiens, UniProt Q9P1W9).
Text: as §1

The target of the next assay is MARK2 (Homo sapiens, UniProt Q7KZI7).
Chain of MARK2 (Q7KZI7 whole entry): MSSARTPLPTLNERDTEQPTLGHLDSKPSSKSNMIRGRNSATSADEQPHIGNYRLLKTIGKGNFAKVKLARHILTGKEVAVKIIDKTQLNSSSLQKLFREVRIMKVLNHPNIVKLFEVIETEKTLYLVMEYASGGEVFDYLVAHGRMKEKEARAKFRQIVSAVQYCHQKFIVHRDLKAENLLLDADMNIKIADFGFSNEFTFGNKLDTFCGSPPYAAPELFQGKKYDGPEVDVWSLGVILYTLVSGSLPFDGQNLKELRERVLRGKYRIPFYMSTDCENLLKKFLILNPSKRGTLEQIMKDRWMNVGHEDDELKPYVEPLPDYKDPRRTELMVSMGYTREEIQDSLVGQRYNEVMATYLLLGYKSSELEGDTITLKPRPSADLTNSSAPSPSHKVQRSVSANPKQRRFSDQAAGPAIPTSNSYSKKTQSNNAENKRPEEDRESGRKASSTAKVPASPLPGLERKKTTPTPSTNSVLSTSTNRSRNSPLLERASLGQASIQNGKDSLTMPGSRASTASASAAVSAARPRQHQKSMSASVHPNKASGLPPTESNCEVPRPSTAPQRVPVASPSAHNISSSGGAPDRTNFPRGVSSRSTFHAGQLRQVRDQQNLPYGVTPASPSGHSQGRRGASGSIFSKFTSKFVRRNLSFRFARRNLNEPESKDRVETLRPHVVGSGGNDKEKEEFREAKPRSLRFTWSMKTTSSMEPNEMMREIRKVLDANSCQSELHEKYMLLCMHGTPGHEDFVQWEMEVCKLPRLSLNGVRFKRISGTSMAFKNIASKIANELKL
Text: as §1

The target in the next assay is T1, DLK (Homo sapiens, UniProt Q12852).
T1 construct: gene MAP3K12
Text: as §1

For a further assay, the target named is CLK3 (Homo sapiens, UniProt P49761).
Text: as §1

A further assay concerns the target DAPK2 (Homo sapiens, UniProt Q9UIK4).
Text: as §1

The next assay addresses T2, MST4 (Homo sapiens, UniProt Q9P289).
T2 construct: gene STK26
Text: as §1

Another assay deals with T3, ERK3 (Homo sapiens, UniProt Q16659).
T3 construct: gene MAPK6
Text: as §1

The target of a further assay is GAK (Homo sapiens, UniProt O14976).
Text: as §1

The next assay addresses T4, CDK4-cyclinD3 (Homo sapiens, UniProt P11802).
T4 construct: cyclinD3
Text: as §1

Assay [1] concerns the target EGFR(L747-E749del, A750P) (Homo sapiens, UniProt P00533, A750P/DEL747-749).
Text: as §1

The target in the next assay is ROS1 (Homo sapiens, UniProt P08922).
Chain of ROS1 (P08922 whole entry): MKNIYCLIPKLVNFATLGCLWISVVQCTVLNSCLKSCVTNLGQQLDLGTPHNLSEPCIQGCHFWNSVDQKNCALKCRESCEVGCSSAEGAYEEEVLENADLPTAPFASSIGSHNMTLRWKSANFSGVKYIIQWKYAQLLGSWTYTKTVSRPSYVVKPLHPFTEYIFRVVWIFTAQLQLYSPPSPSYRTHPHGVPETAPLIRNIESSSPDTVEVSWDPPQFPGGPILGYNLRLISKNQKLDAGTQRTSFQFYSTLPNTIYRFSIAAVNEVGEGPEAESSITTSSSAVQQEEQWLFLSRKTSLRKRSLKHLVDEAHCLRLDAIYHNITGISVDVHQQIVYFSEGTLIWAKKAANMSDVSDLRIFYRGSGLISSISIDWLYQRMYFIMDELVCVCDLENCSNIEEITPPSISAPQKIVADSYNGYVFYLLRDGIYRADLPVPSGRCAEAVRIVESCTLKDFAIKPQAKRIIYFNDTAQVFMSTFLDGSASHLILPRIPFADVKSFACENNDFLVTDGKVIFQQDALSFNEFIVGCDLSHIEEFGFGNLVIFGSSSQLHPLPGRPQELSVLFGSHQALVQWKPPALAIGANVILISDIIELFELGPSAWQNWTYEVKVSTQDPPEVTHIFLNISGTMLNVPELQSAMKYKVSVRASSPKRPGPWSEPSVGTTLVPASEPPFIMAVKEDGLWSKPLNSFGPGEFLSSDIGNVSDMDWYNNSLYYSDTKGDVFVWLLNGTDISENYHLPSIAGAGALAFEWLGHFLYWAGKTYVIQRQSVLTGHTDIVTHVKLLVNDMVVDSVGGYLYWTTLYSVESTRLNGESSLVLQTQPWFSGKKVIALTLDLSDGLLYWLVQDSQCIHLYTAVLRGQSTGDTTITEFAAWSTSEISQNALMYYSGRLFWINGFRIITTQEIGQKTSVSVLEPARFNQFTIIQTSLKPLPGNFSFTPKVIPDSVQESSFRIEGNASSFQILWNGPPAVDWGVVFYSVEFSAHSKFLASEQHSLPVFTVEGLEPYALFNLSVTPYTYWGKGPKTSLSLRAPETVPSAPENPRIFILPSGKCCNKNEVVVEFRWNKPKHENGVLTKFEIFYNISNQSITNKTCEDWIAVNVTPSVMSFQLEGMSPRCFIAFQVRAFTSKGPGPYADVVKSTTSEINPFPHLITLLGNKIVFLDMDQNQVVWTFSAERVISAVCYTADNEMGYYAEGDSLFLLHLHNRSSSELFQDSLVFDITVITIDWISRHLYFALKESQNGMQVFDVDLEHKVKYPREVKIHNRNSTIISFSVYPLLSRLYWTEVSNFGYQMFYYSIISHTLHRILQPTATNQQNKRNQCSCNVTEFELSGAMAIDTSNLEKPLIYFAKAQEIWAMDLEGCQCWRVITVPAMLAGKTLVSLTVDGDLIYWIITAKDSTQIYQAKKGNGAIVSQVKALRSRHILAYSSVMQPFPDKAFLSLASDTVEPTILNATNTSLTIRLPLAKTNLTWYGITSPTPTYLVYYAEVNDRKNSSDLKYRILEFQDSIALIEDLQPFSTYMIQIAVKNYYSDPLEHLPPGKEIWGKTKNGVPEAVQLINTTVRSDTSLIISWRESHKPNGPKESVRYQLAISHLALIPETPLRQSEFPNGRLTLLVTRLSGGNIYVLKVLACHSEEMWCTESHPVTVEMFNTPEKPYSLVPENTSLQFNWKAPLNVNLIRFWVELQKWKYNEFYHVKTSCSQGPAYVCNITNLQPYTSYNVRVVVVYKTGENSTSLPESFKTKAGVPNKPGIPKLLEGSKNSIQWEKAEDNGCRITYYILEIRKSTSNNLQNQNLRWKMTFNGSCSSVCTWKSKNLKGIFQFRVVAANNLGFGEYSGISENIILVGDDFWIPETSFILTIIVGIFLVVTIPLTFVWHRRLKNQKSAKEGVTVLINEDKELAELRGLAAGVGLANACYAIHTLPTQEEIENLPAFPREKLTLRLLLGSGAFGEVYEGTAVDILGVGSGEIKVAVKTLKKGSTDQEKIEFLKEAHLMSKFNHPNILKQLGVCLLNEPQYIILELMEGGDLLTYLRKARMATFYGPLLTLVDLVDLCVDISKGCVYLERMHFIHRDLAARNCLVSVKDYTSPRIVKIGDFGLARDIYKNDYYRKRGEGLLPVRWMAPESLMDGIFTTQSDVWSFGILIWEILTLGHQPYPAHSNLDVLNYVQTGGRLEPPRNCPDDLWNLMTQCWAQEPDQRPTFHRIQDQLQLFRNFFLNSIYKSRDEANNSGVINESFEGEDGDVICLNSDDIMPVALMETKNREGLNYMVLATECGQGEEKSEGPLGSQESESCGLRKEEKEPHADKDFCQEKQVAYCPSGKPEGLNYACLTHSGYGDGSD
Text: as §1

Another assay deals with T5, GCN2(Kin.Dom.2,S808G) (Homo sapiens, UniProt Q9P2K8, S808G).
T5 construct: gene EIF2AK4; Kin.Dom.2
Text: as §1

For another assay, the target named is GSK3B (Homo sapiens, UniProt P49841).
Text: as §1

In the next assay the target is PIK3CB (Homo sapiens, UniProt P42338).
Chain of PIK3CB (P42338 whole entry): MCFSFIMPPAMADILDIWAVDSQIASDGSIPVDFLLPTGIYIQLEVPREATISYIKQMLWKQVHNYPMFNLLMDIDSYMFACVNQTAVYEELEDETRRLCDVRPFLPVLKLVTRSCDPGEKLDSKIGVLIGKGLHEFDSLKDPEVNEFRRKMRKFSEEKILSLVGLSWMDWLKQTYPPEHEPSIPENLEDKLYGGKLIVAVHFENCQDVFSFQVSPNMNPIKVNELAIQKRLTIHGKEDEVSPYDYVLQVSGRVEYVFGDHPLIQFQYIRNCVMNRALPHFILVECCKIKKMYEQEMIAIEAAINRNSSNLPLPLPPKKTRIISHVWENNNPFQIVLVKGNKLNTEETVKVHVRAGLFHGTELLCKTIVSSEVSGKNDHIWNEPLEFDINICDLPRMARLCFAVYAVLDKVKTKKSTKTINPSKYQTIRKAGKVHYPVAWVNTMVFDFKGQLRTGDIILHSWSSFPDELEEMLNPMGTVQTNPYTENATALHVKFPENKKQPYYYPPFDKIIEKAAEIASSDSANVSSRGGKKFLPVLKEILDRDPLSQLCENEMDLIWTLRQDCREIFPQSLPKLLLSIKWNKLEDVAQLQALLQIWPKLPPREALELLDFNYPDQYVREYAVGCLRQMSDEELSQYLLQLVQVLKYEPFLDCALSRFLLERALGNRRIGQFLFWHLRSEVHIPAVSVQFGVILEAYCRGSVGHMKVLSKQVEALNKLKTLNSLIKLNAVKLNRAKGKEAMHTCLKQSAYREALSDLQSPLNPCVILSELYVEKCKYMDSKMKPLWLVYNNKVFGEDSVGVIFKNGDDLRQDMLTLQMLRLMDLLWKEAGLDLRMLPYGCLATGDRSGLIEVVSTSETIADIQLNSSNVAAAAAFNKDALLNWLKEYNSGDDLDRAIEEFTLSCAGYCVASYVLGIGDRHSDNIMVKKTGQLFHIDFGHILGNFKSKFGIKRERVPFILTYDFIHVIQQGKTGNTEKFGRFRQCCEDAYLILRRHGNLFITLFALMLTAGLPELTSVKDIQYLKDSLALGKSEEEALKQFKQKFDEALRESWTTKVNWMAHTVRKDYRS
Text: as §1

The target in the next assay is TESK1 (Homo sapiens, UniProt Q15569).
Chain of TESK1 (Q15569 whole entry): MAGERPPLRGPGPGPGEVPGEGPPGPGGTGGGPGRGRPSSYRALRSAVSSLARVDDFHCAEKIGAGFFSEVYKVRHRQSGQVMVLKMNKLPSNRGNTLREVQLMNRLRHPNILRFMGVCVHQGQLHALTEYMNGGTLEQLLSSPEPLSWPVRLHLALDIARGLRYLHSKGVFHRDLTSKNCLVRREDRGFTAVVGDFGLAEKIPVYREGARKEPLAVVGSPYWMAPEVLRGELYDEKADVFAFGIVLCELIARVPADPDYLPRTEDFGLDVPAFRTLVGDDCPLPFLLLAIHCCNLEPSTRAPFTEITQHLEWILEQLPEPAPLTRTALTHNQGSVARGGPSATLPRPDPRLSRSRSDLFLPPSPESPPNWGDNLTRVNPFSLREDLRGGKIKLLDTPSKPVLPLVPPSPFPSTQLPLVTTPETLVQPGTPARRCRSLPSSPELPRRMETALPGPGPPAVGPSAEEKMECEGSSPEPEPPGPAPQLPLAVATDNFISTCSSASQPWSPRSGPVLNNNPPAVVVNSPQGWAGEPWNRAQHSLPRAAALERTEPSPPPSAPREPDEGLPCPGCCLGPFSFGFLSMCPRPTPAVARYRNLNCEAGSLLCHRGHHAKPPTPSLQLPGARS
Text: as §1

Another assay deals with T6, ASK2 (Homo sapiens, UniProt O95382).
T6 construct: gene MAP3K6
Text: as §1

The source of these data is article PMC7486443, “Generation of Phenothiazine with Potent Anti-TLK1 Activity for Prostate Cancer Therapy” (iScience, 2020).

For `c1ccc2c(c1)Sc1ccccc1N2CCN1CCOCC1` [J54], the remaining binding on MYO3A was determined as 100%; on TNIK it was 98%; at PIM2, 42%; at MARK2, 99%; on DLK it was 100%; on CLK3, 92%. Moreover, the remaining binding on DAPK2 stood at 97%; at MST4, 100%; at ERK3, 73%; on GAK it was 95%; at CDK4-cyclinD3, 98%; in assay [1] it was 90%. Moreover, the remaining binding at ROS1, on GCN2(Kin.Dom.2,S808G), at GSK3B, on PIK3CB, on TESK1 and at ASK2 was 100% each time.
